Here are results for 25 compounds from ChEMBL document CHEMBL3352707, “Antimycobacterial activity of natural products and synthetic agents: pyrrolodiquinolines and vermelhotin as anti-tubercular leads against clinical multidrug resistant isolates of Mycobacterium tuberculosis” (Eur J Med Chem, 2015).

Converted amounts (≈) assume the structure as drawn. Some results are limits rather than exact numbers.

Series [1] has as its system Mycobacterium tuberculosis. Briefly: Antimycobacterial activity against Mycobacterium tuberculosis H37Rv after 7 days by microplate Alamar blue assay. The format is functional. The settings on record: 168 h. (Alamar Blue is a resazurin reagent that responds to reducing activity.)
For series [2], the system named is Mycobacterium tuberculosis. Briefly: Antimycobacterial activity against Mycobacterium tuberculosis H37Ra after 7 days by microplate Alamar blue assay. In kind it is functional. Particulars: 168 h.
In series [3] the test system is MRC5. Briefly: Cytotoxicity against human MRC5 cells by MTT assay. In kind it is cell-based. (In general: Formazan colour is commonly taken as a measure of viable cells.)
In series [4] the test system is Mycobacterium tuberculosis. Nature of the series: Antimycobacterial activity against p-Aminosalicylic acid-resistant Mycobacterium tuberculosis H37Rv ATCC 35821 after 7 days by microplate Alamar blue assay. The settings on record: H37Rv ATCC 35821, 168 h. In kind it is functional.
The test system of series [5] is MRC5. Nature of the series: Cytotoxicity against human MRC5 cells at 50 ug/ml by MTT assay. In kind it is cell-based.

In the case of `O=C(O)CC[N+](=O)[O-]`, the minimum inhibitory concentration (MIC) (commonly the lowest concentration found to suppress growth) came out at 12.5 µg/mL (≈ 105 µM) in series [1] and 50 µg/mL (≈ 420 µM) in series [2].

On to `C[n+]1cc2c(cn3c4ccccc4ccc23)c2ccccc21.[I-]`, for which the MIC in series [1] is 6.2 µg/mL; in series [4], 1.5 µg/mL; in series [2] it was 1.5 µg/mL. Also, the IC50 (commonly the concentration at which inhibition is half-maximal) with MRC5 [3] was 30 µg/mL.

Turning to `COC(=O)CCC[N+](=O)[O-]`, the MIC in series [1] was 25 µg/mL (≈ 170 µM); in series [2], 12.5 µg/mL (≈ 85 µM).

In the case of `O=C1C[C@H]2SS[C@@]34C[C@@H]1[C@@H]([C@H]2O)N3C(=O)[C@@]12C[C@H]3C(=O)C[C@@H](S1)[C@H](O)[C@H]3N2C4=O` [EPICOCCIN A], the MIC in series [1] and in series [2] was more than 100 µg/mL in each case.

As for `CN1Cc2c(cn3c2ccc2ccccc23)-c2ccccc21`, the MIC in series [1] was found to be 6.2 µg/mL (≈ 21.8 µM); in series [4], 1.5 µg/mL (≈ 5.27 µM); in series [2], 0.7 µg/mL (≈ 2.46 µM). The same compound gave an IC50 with MRC5 [3] of 23.5 µg/mL (≈ 82.6 µM).

`COc1cccc2c1C(=O)c1c(O)c3c(c(O)c1C2=O)C[C@@](O)(C(=O)CO)C[C@@H]3O[C@H]1C[C@H](N)[C@H](O)[C@H](C)O1` [DOXORUBICIN]: the Activity entry in the series with MRC5 [5] was “Non-toxic”.

`CN1c2cccc([N+](=O)[O-])c2C2CC1OC1=C2C(=O)CC(C)(C)C1` (stereo not drawn) came in with an MIC in series [2] of more than 100 µg/mL.

`COc1ccc2c(c1)C(C1=C(O)CCCC1=O)C1=C(CCCC1=O)O2` (stereo not drawn) returned an MIC in series [2] of more than 100 µg/mL.

With `C/C=C/C1=CC=C/C(=C2\C(=O)CNC2=O)O1` [VERMELHOTIN], the MIC in series [1] amounted to 6.2 µg/mL (≈ 28.5 µM); in series [4], 3.1 µg/mL (≈ 14.3 µM); in series [2] it was 3.1 µg/mL (≈ 14.3 µM). This compound also displayed an IC50 in the series with MRC5 [3] of 6.97 µg/mL (≈ 32.1 µM).

As for `CC(=O)c1cc2cccc(O)c2oc1=O`, the MIC in series [2] was more than 100 µg/mL.

In series [2], `CCC(N)C(=O)O` (racemic) gave an MIC of more than 100 µg/mL.

In series [2], `COC(=O)c1cc2c(ccc3ccccc32)oc1=O` came in with an MIC of 50 µg/mL (≈ 197 µM).

Consider `COC(=O)C1=C(C)Oc2ccc(OC)cc2[C@@H]1[C@H](C(C)=O)C(=O)OC`, for which the MIC in series [2] is more than 100 µg/mL.

Turning to `COCCC(=O)O`, the MIC in series [1] was 100 µg/mL (≈ 961 µM); in series [2], more than 100 µg/mL.

`COC(=O)[C@@]12Oc3ccc(-c4ccc5c(c4O)C(O)C4=C(O)C[C@H](C)[C@@H](O)[C@]4(C(=O)OC)O5)c(O)c3C(=O)C1=C(O)C[C@H](C)[C@H]2O` (stereo partly drawn) [SECALONIC ACID D] registered an MIC in series [2] of more than 100 µg/mL.

Consider `CCN(CC)c1ccc2c(c1)OC1=C(C(=O)CC(C)(C)C1)C2c1c[nH]c2ccccc12` (stereo not drawn), for which, in series [2], the MIC is more than 100 µg/mL.

For `COC(=O)[C@]1(Cc2ccc3c(c2)C[C@H](O)C(C)(C)O3)OC(=O)C(O)=C1c1ccc(O)cc1` [BUTYROLACTONE V], the MIC in series [2] was more than 100 µg/mL.

`COc1ccc2c(c1)C(n1nnc3ccccc31)C1=C(CCCC1=O)O2` (stereo not drawn) returned an MIC in series [2] of more than 100 µg/mL.

In the case of `C/C(=C\C=C\[C@H](O)[C@@H](C)O)[C@H](O)[C@H](C)C(=O)O[C@H]1C[C@H](CO)C[C@@H]2C=C[C@H](C)[C@](C)(C(=O)C(O)CO)[C@@H]12` (stereo partly drawn), the MIC in series [2] is more than 100 µg/mL.

With `COc1ccc2cc(C(C)=O)c(=O)oc2c1`, the MIC in series [2] was more than 100 µg/mL.

Take `O=C1c2c(O)cc(O)c([C@@H]3C(=O)c4c(O)cc(O)cc4O[C@H]3c3ccc(O)cc3)c2O[C@H](c2ccc(O)cc2)[C@H]1O`: the MIC in series [2] is more than 100 µg/mL.

On to `COc1ccc(Br)c2c1OC1=C(C(=O)CCC1)C2n1nnc2ccccc21` (stereo not drawn), for which the MIC in series [2] was more than 100 µg/mL.

Compound `COC(=O)c1cc2ccccc2oc1=O` displayed an MIC in series [2] of more than 100 µg/mL.

Compound `CN1c2ccccc2C2CC1OC1=C2C(=O)CC(C)(C)C1` (stereo not drawn) showed a minimal inhibitory concentration (MIC) in series [2] of more than 100 µg/mL.

For the compound `O=C1CCCC2=C1C(n1nnc3ccccc31)c1cc(Br)ccc1O2` (stereo not drawn), in series [2], the MIC is more than 100 µg/mL.
